The source of these data is US20200237742A1, “Serdexmethylphenidate Conjugates, Compositions And Methods Of Use Thereof” (priority 2018, published 2020).

Data set [1] concerns recreational stimulant abusers. Nature of the data set: Intravenous abuse potential study, VAS pharmacodynamic assessments. The class given is in vivo, human. An excerpt: “Drug liking” score, used herein, is the score used to assess the degree that a human participant likes a drug effect at the time the question is being asked (that is, at the moment). It is scored using a 0 to 100 point bipolar visual analogue scale (VAS) anchored in the center with a neutral anchor of “neither like nor dislike” (score of 50), on the left with “strong disliking” (score of 0) and on the right with “strong liking” (score of 100).
“Euphoria” or “Feeling High” score, used herein, is the term to describe the score used to assess the degree that a human participant is high at the time the question is being asked (that is, at the moment). It is scored using a 0 to 100 point unipolar visual analogue scale (VAS) anchored on the left with “Not at All” (score of 0) and on the right with “Extremely” (score of 100).
“Take Drug Again” score, used herein, is the term to describe the score used to assess the degree that a human participant wants to take the drug again, if given the opportunity, based on his/her opinion now, i.e., at the time the question is being asked. It is scored using a 0 to 100 point unipolar visual analogue scale (VAS) anchored on the left with “Definitely Would Not” (score of 0) and on the right with “Definitely Would” (score of 100).
“Overall Drug Liking” score, used herein, is the term to describe the score used to assess the human subject's global perception of drug liking (i.e., the subjective effects over the whole course of the drug experience including any carryover effects). Subjects respond to the statement “Overall, my liking for this drug is.” The question is scored using a 0-100 point bipolar VAS anchored on the left with “Strong Disliking” (score of 0); “Neither Like nor Dislike” (score of 50) in the middle, and anchored on the right with “Strong Liking” (score of 100). This scale has the advantage of the human subject being relatively less affected or unaffected by acute study drug effects (if any) by the time of the assessment.
“Good Effects” score, used herein, is the term to describe the score used to assess the degree that a human participant is feeling good drug effects at the time the question is being asked (that is, at the moment). Subjects respond to the statement “At this moment, I can feel good drug effects.” It is scored using a 0 to 100 point unipolar visual analogue scale (VAS) anchored on the left with “Not at All” (score of 0) and on the right with “Extremely” (score of 100).
Safety assessments were performed throughout the study.

Data set [2] relates to recreational stimulant abusers. Nature of the data set: Intravenous study, treatment-emergent adverse events. The settings on record: d-methylphenidate treatment vs serdexmethylphenidate. The procedure: (§1) A study was conducted in humans to assess the intravenous abuse potential of serdexmethylphenidate relative to unconjugated d-methylphenidate and placebo in recreational stimulant abusers. This was a Phase 1, randomized, double-blind study in which serdexmethylphenidate and d-methylphenidate were administered intravenously in recreational stimulant users with a history of non-oral abuse. In Part A of the study, subjects (Cohort 1) participated in a dose-escalation phase to determine the optimal dose of intravenous d-methylphenidate based on tolerability and abuse-related pharmacodynamic assessments. […] The doses of serdexmethylphenidate and d-methylphenidate are equivalent with respect to molar amount of d-methylphenidate. FDA-recommended abuse potential measures and blood samples were collected at different times after dosing. Safety assessments were performed throughout the study.

In data set [3] the test system is healthy, nondependent, recreational stimulant users. Description: Oral abuse potential study, VAS pharmacodynamic assessments.
A short description of data set [4]: Intravenous pharmacokinetic study (KP415.A03) in recreational stimulant users. The settings on record: following intravenous administration. Here is the method:
as §1

The nature of data set [5]: Intranasal study (KP415.A02), plasma pharmacokinetics. The format is in vivo, human. The settings on record: intranasal administration.
Procedure: On dosing days in the Treatment Phase, blood samples were collected for the measurement of the plasma concentrations of SDX, d-methylphenidate (d-MPH), 1-methylphenidate (1-MPH) and ritalinic acid at predose and at 0.25, 0.5, 0.75, 1, 1.5, 2, 3, 4, 5, 6, 7, 8, 9, 10, 12, 16, 24, 36, and 48 hours ±5 minutes after each dose of study drug. […] All VAS pharmacodynamic assessments except Take Drug Again and Overall Drug Liking were performed at 0.25, 0.5, 0.75, 1, 1.5, 2, 3, 4, 5, 6, 7, 8, 10, 12, 24 hours ±5 minutes postdose. In addition, predose assessments of Feeling High, and Drowsiness/Alertness were collected. The Take Drug Again and Overall Drug Liking VAS assessments were performed at 12 and 24 hours ±5 minutes postdose. Ease of Nasal Insufflation scores were completed within 5 minutes after the completion of each intranasal drug administration during the Treatment Phase.
The mark [6] stands for this setting: Focalin XR 80 mg, phentermine HCl 60 mg, bipolar VAS.
Where [7] appears, read: Focalin XR 80 mg, phentermine HCl 60 mg, unipolar VAS.
The mark [8] stands for this setting: phentermine HCl 60 mg vs SDX Cl 120 mg.
Where [9] appears, read: phentermine HCl 60 mg vs SDX Cl 240 mg.
Setting [10] is: phentermine HCl 60 mg vs placebo.

Counter-ions that a name gives are not always drawn.

For the molecule `COC(=O)[C@H](c1ccccc1)[C@H]1CCCCN1` [d-methylphenidate, methyl (R)-2-phenyl-2-((R)-piperidin-2-yl)acetate, reference compound], the “Drug Liking Emax, statistical analysis vs. placebo” value in data set [1] (d-MPH HCl 15 mg vs placebo (study validity)) is given as “significantly higher”. Further, the “Typical stimulant-related Adverse Events (euphoric mood, hypervigilance, increased heart rate)” value in data set [2] was “more common”.
As to `CC(C)(N)Cc1ccccc1` [phentermine hydrochloride, reference compound], in data set [3] (setting [6]), the “Drug Liking Emax, Median” value worked out at 84.0; the “Feeling Alert/Drowsy Emax, Median” value is on record as 84.0; the “Overall Drug Liking Emax, Median” value came to 77.0; the “Take Drug Again Emax, Median” value came to 75.0. In data set [3] (setting [7]), the “Any Effects Emax, Median” value was determined as 74.0; the “Bad Effects Emax, Median” value is reported as 7.0; the “Feeling High Emax, Median” value is recorded as 76.0; the “Good Effects Emax, Median” value came out at 75.0. Moreover, in data set [3] (setting [8]), the “Mean Difference Any Effects Emax, D vs A” value was 37.4; the “Mean Difference Bad Effects Emax, D vs A” value is reported as 11.9; the “Mean Difference Feeling Alert/Drowsy Emax, D vs A” value is reported as 15.7; the “Mean Difference Feeling High Emax, D vs A” value came to 36.0. Moreover, in data set [3] (setting [8]), the “Mean Difference Good Effects Emax, D vs A” value is on record as 35.5; the “Mean Difference Overall Drug Liking Emax, D vs A” value is listed as 14.9; the “Mean Difference Take Drug Again Emax, D vs A” value is given as 14.9. For the same molecule, the “Mean Difference Drug Liking Emax, D vs A” value in data set [3] (phentermine HCl 60 mg vs SDX Cl 120 mg, margin 10) is on record as 15.5. Moreover, in data set [3] (setting [9]), the “Mean Difference Any Effects Emax, D vs B” value is listed as 28.0; the “Mean Difference Bad Effects Emax, D vs B” value is reported as 4.6; the “Mean Difference Feeling Alert/Drowsy Emax, D vs B” value turned out to be 12.2; the “Mean Difference Feeling High Emax, D vs B” value was 27.7. For the same molecule, in data set [3] (setting [9]), the “Mean Difference Good Effects Emax, D vs B” value is listed as 30.2; the “Mean Difference Overall Drug Liking Emax, D vs B” value turned out to be 15.3; the “Mean Difference Take Drug Again Emax, D vs B” value stood at 15.4. Moreover, the “Mean Difference Drug Liking Emax, D vs B” value in data set [3] (phentermine HCl 60 mg vs SDX Cl 240 mg, margin 10) is reported as 14.0. In addition, in data set [3] (setting [10]), the “Bad Effects Emax, median difference D vs E” value was determined as 8.0c; the “Mean Difference Any Effects Emax, D vs E” value turned out to be 48.5; the “Mean Difference Feeling Alert/Drowsy Emax, D vs E” value is given as 23.5; the “Mean Difference Feeling High Emax, D vs E” value is reported as 46.4. In data set [3] (setting [10]), the “Mean Difference Good Effects Emax, D vs E” value was 47.6; the “Mean Difference Overall Drug Liking Emax, D vs E” value worked out at 18.6; the “Mean Difference Take Drug Again Emax, D vs E” value was found to be 17.1. In data set [3] (phentermine HCl 60 mg vs placebo, margin 10, hydrochloride), the “Mean Difference Drug Liking Emax, D vs E” value turned out to be 22.3. Besides, in data set [3] (phentermine HCl 60 mg vs placebo, margin 10, listed as Phentermine, hydrochloride), the “Mean Difference Drug Liking Emax, D vs E” value is on record as “statistically significantly higher”.
In the case of `COC(=O)[C@H](c1ccccc1)[C@H]1CCCCN1C(=O)OC[n+]1cccc(C(=O)N[C@@H](CO)C(=O)O)c1` [serdexmethylphenidate], the “conversion of serdexmethylphenidate to d-methylphenidate” value in data set [4] is given as “very little conversion”. For the same molecule, the “Median Difference Drug Liking Emax, A vs C” value in data set [1] (SDX Cl 30 mg vs placebo, bipolar VAS) is “not significantly different”. Also, the “Median Difference Drug Liking Emax, B vs A” value in data set [1] (d-MPH HCl 15 mg vs SDX Cl 30 mg, bipolar VAS) is on record as “significantly lower”. Further, in data set [1] (subjects with a history of non-oral abuse of stimulants), the “effects on multiple abuse-related endpoints vs intravenous placebo” value is on record as “statistically similar”. The “conversion of SDX to the active d-methylphenidate when snorted” value in data set [5] is “not readily or effectively converted”.
